Assays:
Experiment in all cases: relative viability (nuclei count vs DMSO), 5 days (fraction); higher = more cells survive
SK-MES-1 = system: SK-MES-1
How it was run: (§1)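 Nuclei were stained with Hoechst during a one-step fixation (final 0.05% Triton X-100, 1% formaldehyde, 1 ug/ml Hoechst) carried out 5 days after dosing, then counted on 4× images. The cells, lung cancer lines in 1536-well plates, had been dosed by pin tool the day after seeding with one drug alone or a fixed anchor-drug dose plus five library-drug doses (not always all listed) in √10 steps. Relative viability is the nuclei count in treated wells divided by that in vehicle wells, and each value is the median of duplicate plates.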

NCI-H1734 = system: NCI-H1734
How it was run: as §1

A-427 = system: A-427
How it was run: as §1

NCI-H2228 = system: NCI-H2228
How it was run: as §1

NCI-H2170 = system: NCI-H2170
How it was run: as §1

SW 1573 = system: SW 1573
How it was run: as §1

NCI-H1993 = system: NCI-H1993
How it was run: as §1

NCI-H1792 = system: NCI-H1792
How it was run: as §1

RERF-LC-KJ = system: RERF-LC-KJ
How it was run: as §1

HCC-366 = system: HCC-366
How it was run: as §1

NCI-H1755 = system: NCI-H1755
How it was run: as §1

LCLC-103H = system: LCLC-103H
How it was run: as §1

NCI-H2342 = system: NCI-H2342
How it was run: as §1

HCC-827 = system: HCC-827
How it was run: as §1

UMC-11 = system: UMC-11
How it was run: as §1

NCI-H1975 = system: NCI-H1975
How it was run: as §1

NCI-H2347 = system: NCI-H2347
How it was run: as §1

LC-2-ad = system: LC-2-ad
How it was run: as §1

NCI-H23 = system: NCI-H23
How it was run: as §1

NCI-H650 = system: NCI-H650
How it was run: as §1

SK-LU-1 = system: SK-LU-1
How it was run: as §1

NCI-H1915 = system: NCI-H1915
How it was run: as §1

NCI-H1355 = system: NCI-H1355
How it was run: as §1

CN1CCN(CCOc2cc(OC3CCOCC3)c3c(Nc4c(Cl)ccc5c4OCO5)ncnc3c2)CC1 [Saracatinib] + O=C(c1cc(Cc2n[nH]c(=O)c3ccccc23)ccc1F)N1CCN(C(=O)C2CC2)CC1 [Olaparib] (partner 8 µM)
relative viability (SK-MES-1; first compound 0.02 µM): 0.703 | relative viability (SK-MES-1; first compound 0.2 µM): 0.69 | relative viability (SK-MES-1; first compound 0.6325 µM): 0.49 | relative viability (SK-MES-1; first compound 2 µM): 0.299 | relative viability (NCI-H1734; first compound 0.02 µM): 0.592 | relative viability (NCI-H1734; first compound 0.6325 µM): 0.515 | relative viability (NCI-H1734; first compound 2 µM): 0.547 | relative viability (A-427; first compound 0.02 µM): 0.733 | relative viability (A-427; first compound 0.2 µM): 0.689 | relative viability (A-427; first compound 0.6325 µM): 0.715 | relative viability (A-427; first compound 2 µM): 0.71 | relative viability (NCI-H2228; first compound 0.02 µM): 0.966 | relative viability (NCI-H2228; first compound 0.2 µM): 0.617 | relative viability (NCI-H2228; first compound 0.6325 µM): 0.475 | relative viability (NCI-H2228; first compound 2 µM): 0.568 | relative viability (NCI-H2170; first compound 0.02 µM): 0.597 | relative viability (NCI-H2170; first compound 0.2 µM): 0.539 | relative viability (NCI-H2170; first compound 0.6325 µM): 0.558 | relative viability (NCI-H2170; first compound 2 µM): 0.524 | relative viability (SW 1573; first compound 0.02 µM): 0.502 | relative viability (SW 1573; first compound 0.2 µM): 0.382 | relative viability (SW 1573; first compound 0.6325 µM): 0.448 | relative viability (SW 1573; first compound 2 µM): 0.384 | relative viability (NCI-H1993; first compound 0.02 µM): 1.03 | relative viability (NCI-H1993; first compound 0.2 µM): 1.02 | relative viability (NCI-H1993; first compound 0.6325 µM): 1.01 | relative viability (NCI-H1993; first compound 2 µM): 0.989 | relative viability (NCI-H1792; first compound 0.02 µM): 0.537 | relative viability (NCI-H1792; first compound 0.2 µM): 0.352 | relative viability (NCI-H1792; first compound 0.6325 µM): 0.644 | relative viability (NCI-H1792; first compound 2 µM): 0.385 | relative viability (RERF-LC-KJ; first compound 0.02 µM): 1.09 | relative viability (RERF-LC-KJ; first compound 0.2 µM): 0.841 | relative viability (RERF-LC-KJ; first compound 0.6325 µM): 0.9 | relative viability (RERF-LC-KJ; first compound 2 µM): 0.977 | relative viability (HCC-366; first compound 0.02 µM): 0.343 | relative viability (HCC-366; first compound 0.2 µM): 0.0912 | relative viability (HCC-366; first compound 0.6325 µM): 0.264 | relative viability (HCC-366; first compound 2 µM): 0.199 | relative viability (NCI-H1755; first compound 0.02 µM): 0.876 | relative viability (NCI-H1755; first compound 0.2 µM): 0.751 | relative viability (NCI-H1755; first compound 0.6325 µM): 0.872 | relative viability (NCI-H1755; first compound 2 µM): 0.786 | relative viability (LCLC-103H; first compound 0.02 µM): 0.796 | relative viability (LCLC-103H; first compound 0.2 µM): 0.71 | relative viability (LCLC-103H; first compound 0.6325 µM): 0.758 | relative viability (LCLC-103H; first compound 2 µM): 0.807 | relative viability (NCI-H2342; first compound 0.02 µM): 0.55 | relative viability (NCI-H2342; first compound 0.2 µM): 0.312 | relative viability (NCI-H2342; first compound 0.6325 µM): 0.434 | relative viability (NCI-H2342; first compound 2 µM): 0.451 | relative viability (HCC-827; first compound 0.02 µM): 0.66 | relative viability (HCC-827; first compound 0.2 µM): 0.532 | relative viability (HCC-827; first compound 0.6325 µM): 0.192 | relative viability (HCC-827; first compound 2 µM): 0.16 | relative viability (UMC-11; first compound 0.02 µM): 0.42 | relative viability (UMC-11; first compound 0.2 µM): 0.306 | relative viability (UMC-11; first compound 0.6325 µM): 0.362 | relative viability (UMC-11; first compound 2 µM): 0.351 | relative viability (NCI-H1975; first compound 0.02 µM): 0.787 | relative viability (NCI-H1975; first compound 0.2 µM): 0.793 | relative viability (NCI-H1975; first compound 0.6325 µM): 0.804 | relative viability (NCI-H1975; first compound 2 µM): 0.517 | relative viability (NCI-H2347; first compound 0.02 µM): 0.571 | relative viability (NCI-H2347; first compound 0.2 µM): 0.428 | relative viability (NCI-H2347; first compound 0.6325 µM): 0.622 | relative viability (NCI-H2347; first compound 2 µM): 0.551 | relative viability (LC-2-ad; first compound 0.02 µM): 0.773 | relative viability (LC-2-ad; first compound 0.2 µM): 0.636 | relative viability (LC-2-ad; first compound 0.6325 µM): 0.723 | relative viability (LC-2-ad; first compound 2 µM): 0.705 | relative viability (NCI-H23; first compound 0.02 µM): 0.386 | relative viability (NCI-H23; first compound 0.6325 µM): 0.391 | relative viability (NCI-H23; first compound 2 µM): 0.23 | relative viability (NCI-H650; first compound 0.02 µM): 0.353 | relative viability (NCI-H650; first compound 0.2 µM): 0.442 | relative viability (NCI-H650; first compound 0.6325 µM): 0.429 | relative viability (NCI-H650; first compound 2 µM): 0.432 | relative viability (SK-LU-1; first compound 0.02 µM): 0.416 | relative viability (SK-LU-1; first compound 0.2 µM): 0.359 | relative viability (SK-LU-1; first compound 0.6325 µM): 0.33 | relative viability (SK-LU-1; first compound 2 µM): 0.28 | relative viability (NCI-H1915; first compound 0.02 µM): 0.256 | relative viability (NCI-H1915; first compound 0.2 µM): 0.244 | relative viability (NCI-H1915; first compound 0.6325 µM): 0.281 | relative viability (NCI-H1915; first compound 2 µM): 0.225 | relative viability (NCI-H1355; first compound 0.02 µM): 0.796 | relative viability (NCI-H1355; first compound 0.2 µM): 0.692 | relative viability (NCI-H1355; first compound 0.6325 µM): 0.817 | relative viability (NCI-H1355; first compound 2 µM): 0.706

From the supplement of paper PMC10307832
